The record followed here is ChEMBL document CHEMBL3507680, “University of Dundee, Gates Library screen for HepG2 cell viability”.

A short description of the data set: Human HepG2 cell viability assay in 384 well format. In kind it is toxicity, cell-based. Details: dose 125 nL, time 70.5 hour; cytotoxicity at 70.5 h: concentration not given beside the values. The conditions noted are these: HepG2 cells, read-out: Inhibition.
Turning to `CCO[C@H]1CCN(S(=O)(=O)c2cn(C)cn2)[C@H]1Cc1ccccc1`, the cytotoxicity at 70.5 h is -1.16%.

As for `N#Cc1nc(COc2ccc3c(c2)OCO3)oc1N1CCCCCC1`, the cytotoxicity at 70.5 h was -21.8%.

Consider `Cc1cc(CNCc2c(C)n(CC(C)C)c3ccccc23)[nH]n1`, for which the cytotoxicity at 70.5 h was -5.55%.

Consider `COc1ccccc1OCc1cc(C(=O)N2[C@H](C)CC[C@@H]2C)n[nH]1`, for which the cytotoxicity at 70.5 h is -6.18%.

`CCc1cn[nH]c1C1CCN(c2cc(C)c3cccc(OC)c3n2)CC1`: the cytotoxicity at 70.5 h came out at 0.472%.

Take `CCc1nnc2ccc(N3CCN(S(=O)(=O)c4ccc(Cl)s4)CC3)nn12`: the cytotoxicity at 70.5 h was -19%.

On to `COCC1CN(Cc2ccc(C)o2)Cc2cnn(CC3CCOCC3)c21` (stereo not given), for which the cytotoxicity at 70.5 h is 6.49%.

For `CC(C)(C)CCCC(=O)Nc1ccnn1C1CCS(=O)(=O)C1` (stereo not given), the cytotoxicity at 70.5 h was -6.88%.

For `CN(Cc1nc(-c2cccnc2)no1)C(=O)c1cnc2n1CCCC2`, the cytotoxicity at 70.5 h is -6.12%.

In the case of `CN(C)c1ncc2c(n1)C1(CCN(Cc3cccnc3)C1)COC2` (stereo not given), the cytotoxicity at 70.5 h amounted to 4.89%.

Take `CC(=O)N(C)Cc1ccccc1NC(=O)N(C)CCc1cccs1`: the cytotoxicity at 70.5 h is -3.06%.

In the case of `O=c1[nH]c2nc(NC3CC3)ncc2c(=O)n1-c1ccc(F)cc1`, the cytotoxicity at 70.5 h came to 0.679%.

Turning to `COc1cccc(CN2CC(O)CN(S(C)(=O)=O)CC2=O)c1OC` (stereo not given), the cytotoxicity at 70.5 h came out at 4.13%.

For the molecule `O=C(NCCc1cccs1)[C@H]1CO[C@H]2CCN(CC3CC3)C[C@H]2C1`, the cytotoxicity at 70.5 h is -5.6%.

Turning to `CC(C)Cc1cc(C(=O)N2CCCC(n3cncn3)C2)[nH]n1` (stereo not given), the cytotoxicity at 70.5 h was -7.4%.

On to `O=C([C@@H]1CCO[C@@H]2CCN(Cc3ccco3)C[C@H]21)N1CCCCO1`, for which the cytotoxicity at 70.5 h was -9.33%.

In the case of `Fc1ccc(-c2nc(CN3CCCCC3Cn3cncn3)co2)cc1` (stereo not given), the cytotoxicity at 70.5 h is -3.61%.

As to `Cc1cc(NC(=O)N2CCC[C@@H]2CO)nn1-c1cccc(Cl)c1`, the cytotoxicity at 70.5 h is -8.23%.

In the case of `CC(C)c1nnc2n1CC(CNCc1nnc(C(C)(C)C)o1)CC2` (stereo not given), the cytotoxicity at 70.5 h came out at 9.48%.

In the case of `Cc1cc(C)n(CCC2CC(=O)Nc3cc(O)c(C)cc32)n1` (stereo not given), the cytotoxicity at 70.5 h is -5.9%.

Regarding `O=C(NC1CC2(CCN(CCO)CC2)c2ccccc21)c1ccsc1` (stereo not given), the cytotoxicity at 70.5 h came out at 8.71%.

As for `c1cnnc(N2CCCC2CNCc2nc(-c3ccsc3)no2)c1` (stereo not given), the cytotoxicity at 70.5 h is -20.3%.

For `CS(=O)(=O)CCCNC(=O)NC1CC(c2cccc(Cl)c2)C1` (stereo not given), the cytotoxicity at 70.5 h was -3.19%.

Take `Cc1ccccc1C1(CNC(=O)NCCc2nnc3n2CCC3)CC1`: the cytotoxicity at 70.5 h is -17.5%.

As for `CC(CO)(NC(=O)NCc1ccc(Br)s1)C1CC1` (stereo not given), the cytotoxicity at 70.5 h was -8.92%.

Regarding `CC(O)CC(C)(C)CNS(=O)(=O)c1cccc(Cl)c1C#N` (stereo not given), the cytotoxicity at 70.5 h was -10%.

Turning to `Cc1cnn(CC2CCCCN2C(=O)c2ccc(N(C)C)nc2)c1` (stereo not given), the cytotoxicity at 70.5 h was 0.883%.

Take `CC(C)Oc1cccc(CN2CCC(C(C)N3CCOCC3)CC2)c1` (stereo not given): the cytotoxicity at 70.5 h was -8.8%.

With `CC(C)(C)c1oc(C(N)=O)cc1CN1CCCCC(N)C1` (stereo not given), the cytotoxicity at 70.5 h is -7.89%.

As for `CCN1CCC2(CC1)CC(NCc1cccs1)c1ccccc1O2` (stereo not given), the cytotoxicity at 70.5 h was -5.71%.

As for `CC(C)c1nnc(CN2CCN(C(C)c3nc(C4CC4)no3)CC2)o1` (stereo not given), the cytotoxicity at 70.5 h is -3.84%.

As for `O=C(NCCNc1ncccn1)N1CCN(Cc2cccnc2)CC1`, the cytotoxicity at 70.5 h amounted to 21.2%.

On to `O=C(NCc1nnc2n1CCC2)NCC1(c2cccc(F)c2)CC1`, for which the cytotoxicity at 70.5 h is -5.65%.

Take `CC(C)c1ncc2c(n1)CN(Cc1cccc(C#N)c1)CC2`: the cytotoxicity at 70.5 h was found to be 4.14%.

On to `Cc1nc2cc(-c3nccn3C)nn2c(N2CCC(O)CC2)c1C`, for which the cytotoxicity at 70.5 h is -3.32%.

For the molecule `O=C(NCCN1CCOCC1)c1cc(-c2ccc(Cl)s2)[nH]n1`, the cytotoxicity at 70.5 h is -1.44%.

Take `O=C(c1cc2c(Cl)cccc2[nH]1)N1CCN(CCc2ccccn2)CC1`: the cytotoxicity at 70.5 h is 24.6%.

As to `CC(C)Cc1noc(C2CCCCN2C(=O)CCc2cnn(C)c2)n1` (stereo not given), the cytotoxicity at 70.5 h is -7.69%.

Consider `O=C(NCCCC(=O)N1Cc2ccccc2C1)NCc1cccnc1`, for which the cytotoxicity at 70.5 h was -0.375%.

On to `COc1ccc(C2OC(COc3ccccc3Br)=NN2C(C)=O)cc1` (stereo not given), for which the cytotoxicity at 70.5 h was -6.79%.

For `Cc1nc(CN2CCN(C(=O)c3c(C)noc3C)CC2)cs1`, the cytotoxicity at 70.5 h is -3.65%.

For the molecule `CC(c1ccccc1)N(C)C(=O)CN1CCCc2cccc(F)c21` (stereo not given), the cytotoxicity at 70.5 h was 0.621%.

On to `CC(c1ccc(-c2cnc(N)nc2)cc1)N1CCOCC1` (stereo not given), for which the cytotoxicity at 70.5 h is -3.76%.

Take `CC(C)C[C@@H]1N[C@H](C(=O)NC(C)C)Cc2c[nH]c3cccc1c23`: the cytotoxicity at 70.5 h was -1.24%.

For the molecule `CCn1cnnc1CNC(=O)c1cc(Cl)ccc1O`, the cytotoxicity at 70.5 h stood at 22.7%.

Regarding `CC(C)COC1CCN(C(=O)c2cc3ccccc3c(=O)[nH]2)CC1`, the cytotoxicity at 70.5 h was -4.65%.

On to `CN(Cc1nc(C2CC2)no1)C(=O)CN1CC(c2ccccc2)CC1=O` (stereo not given), for which the cytotoxicity at 70.5 h is -2.96%.

Turning to `NC(=O)C1CN(c2ncnc3c2Cc2ccccc2OC3)CCO1` (stereo not given), the cytotoxicity at 70.5 h is -3.79%.

As to `CNC(=O)c1csc(-c2ccoc2)n1`, the cytotoxicity at 70.5 h is -4.01%.

With `Fc1cnc(N2CCCC3(CCN(Cc4ccoc4)C3)C2)nc1` (stereo not given), the cytotoxicity at 70.5 h was determined as 11.2%.

For `CCc1cnc(N)nc1NCCn1cc(Cl)cn1`, the cytotoxicity at 70.5 h is -6.52%.

For `CCCn1nnnc1CN(CC)CC1COc2ccccc2O1` (stereo not given), the cytotoxicity at 70.5 h is 2.13%.

For `O=C(c1ccc(C2CCCN2)s1)N1CC=CC1` (stereo not given), the cytotoxicity at 70.5 h is -6.78%.

For `CC(C)NC(=O)C(c1ccccc1)N1CCn2c(nnc2C2CC2)C1` (stereo not given), the cytotoxicity at 70.5 h is 2.95%.

Take `Cc1ccc(C(=O)NCCNCC2CNc3ccnn3C2)cc1F` (stereo not given): the cytotoxicity at 70.5 h was found to be 1.33%.

`CCN1CCCC1CNC(=O)Cc1c(C)n[nH]c1-c1ccc(F)cc1` (stereo not given): the cytotoxicity at 70.5 h came to 22.5%.

With `CC(C)(C)Oc1ccc(C(=O)N2CCOCC2c2ncon2)cc1` (stereo not given), the cytotoxicity at 70.5 h was -0.751%.

Turning to `CCc1nnc(C(C)N2CCc3cncnc3C2)o1` (stereo not given), the cytotoxicity at 70.5 h is -3.77%.

Regarding `N#Cc1csc(CNCCOc2ccc(Cl)cn2)c1`, the cytotoxicity at 70.5 h was -5.85%.

`CC(=O)NC1CCCN(C(=O)NCc2cccnc2)C1` (stereo not given): the cytotoxicity at 70.5 h came to 0.9%.

With `Cc1ccc(S(=O)(=O)N2C[C@H]3C[C@H](NC(=O)c4ccccn4)[C@H]3C2)cc1`, the cytotoxicity at 70.5 h was determined as 56.3%.

Regarding `CN1CCc2c(C#N)c(NCCCO)n3cnnc3c2C1`, the cytotoxicity at 70.5 h was -20.7%.

On to `CCN1CCN(Cc2c(C3CCCC3)[nH]c3ncccc23)CC1`, for which the cytotoxicity at 70.5 h was -6.15%.

On to `Cc1ccc(-c2[nH]c3ccccc3c2C(=O)O)c(C)c1`, for which the cytotoxicity at 70.5 h was -4.63%.

In the case of `Cc1n[nH]c2nc(-c3cc(Br)ccc3O)cc(C(=O)O)c12`, the cytotoxicity at 70.5 h turned out to be 8.54%.

Regarding `Cc1cc(C)nc(N(C)CCn2ccnc2C)n1`, the cytotoxicity at 70.5 h is -2.15%.

Regarding `CCOc1cccc(CNC(=O)N2CCC(Cc3cnn(C)c3)C2)c1` (stereo not given), the cytotoxicity at 70.5 h was -13.7%.

Consider `CNC(=O)N1CC[C@@H]2CN(Cc3cccc(OC)c3)S(=O)(=O)[C@@H]2CC1`, for which the cytotoxicity at 70.5 h is -11.1%.

As to `CCN(CC)Cc1ccc(C(=O)N2CCCCC2Cn2cccn2)o1` (stereo not given), the cytotoxicity at 70.5 h is -13.1%.

For `CN1C(=O)CC2(CCN(S(=O)(=O)N(C)C)CC2)c2ccccc21`, the cytotoxicity at 70.5 h amounted to 33.2%.
